# Active and inactive are the calls of the source. The rule behind the calls is not given here.
# How the values were obtained:
# Pseudomonas aeruginosa [1] = test: Antibacterial activity against Pseudomonas aeruginosa ATCC 1539 by disk diffusion method; type: functional
# Staphylococcus aureus [2] = test: Antibacterial activity against Staphylococcus aureus ATCC 6538 by tube dilution method; type: functional
# [3] = system: Mycobacterium tuberculosis; test: Antitubercular activity against Mycobacterium tuberculosis H37Rv at 250 ug/ml; type: functional, organism-based
# Bacillus subtilis [4] = test: Antibacterial activity against Bacillus subtilis ATCC 6633 by disk diffusion method; type: functional
# Staphylococcus aureus [5] = test: Antibacterial activity against Staphylococcus aureus ATCC 6538 by disk diffusion method; type: functional
# Klebsiella pneumoniae [6] = test: Antibacterial activity against Klebsiella pneumoniae UC 57 by disk diffusion method; type: functional
# Pseudomonas aeruginosa [7] = test: Antibacterial activity against Pseudomonas aeruginosa ATCC 1539 by tube dilution method; type: functional
# [8] = system: Staphylococcus epidermidis; test: Antibacterial activity against Staphylococcus epidermidis ATCC 12228 by disk diffusion method; type: functional
# [9] = system: Staphylococcus epidermidis; test: Antibacterial activity against Staphylococcus epidermidis ATCC 12228 by tube dilution method; type: functional
# Bacillus subtilis [10] = test: Antibacterial activity against Bacillus subtilis ATCC 6633 by tube dilution method; type: functional
# Klebsiella pneumoniae [11] = test: Antibacterial activity against Klebsiella pneumoniae UC 57 by tube dilution method; type: functional
# Staphylococcus aureus [12] = test: Antibacterial activity against Staphylococcus aureus ATCC 6538; type: functional, organism-based
# Bacillus subtilis [13] = test: Antibacterial activity against Bacillus subtilis ATCC 6633; type: functional, organism-based
# Klebsiella pneumoniae [14] = test: Antibacterial activity against Klebsiella pneumoniae UC 57; type: functional, organism-based
# Pseudomonas aeruginosa [15] = test: Antibacterial activity against Pseudomonas aeruginosa ATCC 1539; type: functional, organism-based
# [16] = system: Staphylococcus epidermidis; test: Antibacterial activity against Staphylococcus epidermidis ATCC 12228; type: functional, organism-based
Compound,inhibition zone (IZ) (Pseudomonas aeruginosa [1]) [mm],MIC (Staphylococcus aureus [2]) [µg/mL],Activity [3],inhibition zone (IZ) (Bacillus subtilis [4]) [mm],inhibition zone (IZ) (Staphylococcus aureus [5]) [mm],inhibition zone (IZ) (Klebsiella pneumoniae [6]) [mm],MIC (Pseudomonas aeruginosa [7]) [µg/mL],inhibition zone (IZ) [8] [mm],MIC [9] [µg/mL],MIC (Bacillus subtilis [10]) [µg/mL],MIC (Klebsiella pneumoniae [11]) [µg/mL],Activity (Staphylococcus aureus [12]),Activity (Bacillus subtilis [13]),Activity (Klebsiella pneumoniae [14]),Activity (Pseudomonas aeruginosa [15]),Activity [16]
CC(C)C1=C(O)C(=O)C2=C(C=CC3(O)C(C)(C)CCC[C@]23C)C1=O (stereo partly specified) [HYPARGENIN F],>7,125,Active,>7,>7,>7,125,>7,62.5,,,,,,,
CC(C)c1cc2c(cc1O)[C@@]1(C)CCC(=O)C(C)(C)[C@@H]1C=C2 [HYPARGENIN D],>7,,,>7,>7,>7,,>7,,62.5,,,,,,
CC(C)c1cc2c(cc1O)[C@@]1(C)C(=O)CCC(C)(C)[C@@H]1[C@H](O)C2=O [HYPARGENIN A],>7,15.6,,>7,>7,>7,,>7,,,15.6,,,,,
CC(C)(O)c1cc2c(cc1O)[C@@]1(C)CCCC(C)(C)[C@@H]1CC2=O [HYPARGENIN B],>7,125,,>7,>7,>7,,>7,,,125,,,,,
CC(C)c1cc2c(cc1O)[C@@]1(C)CCCC(C)(C)[C@@H]1C(=O)C2=O [HYPARGENIN C],>7,125,,>7,>7,>7,,>7,,15.6,,,,,,
CC(C)c1ccc2c(c1O)C[C@@H](O)[C@H]1C(C)(C)CCC(=O)[C@]21C,,,,,,,,,,,,inactive,inactive,inactive,inactive,inactive
